Data taken from patent US20230158067A1 (priority 2020, published 2023).
Where “and” joins values, the source holds several entries; their conditions need not be identical. Identical values can stand only once.

Experiments:
Vero cells = details: uninfected Vero cells, MTT, 24 h
SARS-CoV2 = experiment: microbe, parasite or virus in culture; type: cell-based; details: for Percentages of infection at 24 h: MOI 0.002, technical replicates
[1] = Severe acute respiratory syndrome coronavirus 2, Vero, 24 h

`CCC(CC)COC(=O)[C@H](C)N[P@](=O)(OC[C@H]1O[C@@](C#N)(c2ccc3c(N)ncnn23)[C@H](O)[C@@H]1O)Oc1ccccc1` [Remdesivir] was tested, and the TC90 (Vero cells) was 3.4416 µM, the “Percentages of infection at 24 h” value (SARS-CoV2; 0.01 μM) was 17.52% and 14.77% and 19.44% and the “Percentages of infection at 24 h” value (SARS-CoV2; 0.03 μM) was 20.60% and 10.69% and 23.44%. For the same molecule, the “Percentages of infection at 24 h” value (SARS-CoV2; 0.08 μM) was 37.97% and 32.40% and 10.00%, the “Percentages of infection at 24 h” value (SARS-CoV2; 0.25 μM) was 8.05% and 17.17% and 39.50% and the “Percentages of infection at 24 h” value (SARS-CoV2; 0.74 μM) was 10.55% and 6.40% and 14.40%. The “Percentages of infection at 24 h” value (SARS-CoV2; 2.22 μM) was 2.04% and 1.54% and 1.69%, the “Percentages of infection at 24 h” value (SARS-CoV2; 6.67 μM) was 0.34% and 0.27% and 0.23% and the “Percentages of infection at 24 h” value (SARS-CoV2; 20.00 μM) was 0.78% and 0.24% and 0.27%. For the same molecule, the EC50 (SARS-CoV2; [1]) was 0.654 µM and the EC90 (SARS-CoV2; [1]) was 1690 µM.
